Assay [1] has as its target T1, LPA2 receptors from the mouse (Mus musculus, UniProt Q9JL06).
T1 construct: expressed in transfected cells
As to the kind of experiment: Calcium-mobilization assay (FURA-2), mouse LPA2. Format: cell-based. As to the method:
(§1) We investigated structure-activity relationships across species, LPAR subtypes and between Rx100 and two known process impurities encountered in manufacture: Rx103 (‘E’ isomer) and Rx200 (oleyl phosphate and impurity, which can be an Rx100 degradant along with oleyl alcohol). Rx100, Rx103, Rx200 and native LPA were investigated at different human LPAR subtypes. In addition, the activity of these compounds was evaluated at LPA2 receptors from the rhesus, rat and mouse species. Human LPA1/2/3 subtypes were transfected into mouse embryonic fibroblasts (MEF) or rat hepatoma cells (RH7777)—both of which are normally non-responsive or null to LPA. Human LPA4 was transfected into Chinese hamster ovary (CHO) cells and LPA5 into the B103 neuroblastoma cell line. […] The B103 rat neuroblastoma cell line is endogenously nonresponsive to LPA but expresses heterologous LPA5 receptors well. […] LPAR activation elicits a G-protein-mediated transient rise in intracellular calcium level that is proportional to the concentration of LPA applied. The intracellular calcium level was quantified by the calcium-selective fluorescent indicator FURA-2 (e.g., increased intracellular calcium surge=increased fluorescence).

Another assay deals with Human LPA2 (Homo sapiens, UniProt Q9HBW0). As to the kind of experiment: Calcium-mobilization assay (FURA-2), human LPA2 transfected cells. Format: cell-based. More on the design: expressed in transfected cells; host or cells: mouse embryonic fibroblasts (MEF) or rat hepatoma RH7777. As to the method: as §1
Another assay has as its target T2, Human LPA3 (Homo sapiens, UniProt Q9UBY5).
T2 construct: expressed in transfected cells; host or cells: mouse embryonic fibroblasts (MEF) or rat hepatoma RH7777
T2 sequence (Q9UBY5 1-353): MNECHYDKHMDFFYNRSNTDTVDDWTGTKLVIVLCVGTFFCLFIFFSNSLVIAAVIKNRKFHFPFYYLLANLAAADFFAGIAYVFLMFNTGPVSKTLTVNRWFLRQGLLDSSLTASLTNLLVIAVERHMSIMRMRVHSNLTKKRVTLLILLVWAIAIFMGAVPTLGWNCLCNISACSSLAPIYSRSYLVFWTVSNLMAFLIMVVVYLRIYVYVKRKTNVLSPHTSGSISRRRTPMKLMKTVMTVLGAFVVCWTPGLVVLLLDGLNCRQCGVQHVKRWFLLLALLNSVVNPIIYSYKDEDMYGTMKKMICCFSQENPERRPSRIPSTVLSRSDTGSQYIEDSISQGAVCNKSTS
As to the kind of experiment: Calcium-mobilization assay (FURA-2), human LPA3 transfected cells. To be noted: for EC50 / Emax (% of LPA): mean. The assay is classed as cell-based. As for the experimental part:
as §1

The test system of another assay is Control CHO. As to the kind of experiment: Calcium-mobilization assay, untransfected Control CHO cells. The assay is classed as cell-based, Chinese hamster. As for the experimental part: as §1
For another assay, the target named is T3, Human LPA4 (Homo sapiens, UniProt Q99677).
T3 construct: expressed in transfected cells; host or cells: CHO
Description: Calcium-mobilization assay (FURA-2), human LPA4 in CHO cells. The assay is classed as cell-based. As to the method:
as §1

For another assay, the target named is T4, Human LPA1 (Homo sapiens, UniProt Q92633).
T4 construct: expressed in transfected cells; host or cells: mouse embryonic fibroblasts (MEF)
Description: Calcium-mobilization assay (FURA-2), human LPA1 transfected cells. Conditions: for EC50 / Emax (% of LPA): mean. Format: cell-based. As for the experimental part:
as §1

For assay [2], the target named is LPA2 receptors from the rhesus (Macaca mulatta, UniProt I2CXV3). As to the kind of experiment: Calcium-mobilization assay (FURA-2), rhesus LPA2. Format: cell-based. As for the experimental part: as §1
In assay [3] the test system is lysophosphatidic acid receptor (LPAR). As to the kind of experiment: Calcium-mobilization assay, overall statements for all species and LPAR subtypes tested. Format: cell-based.
Excerpt: The compound was medicinally designed as an LPA analog with the goal of decreasing the otherwise rapid metabolism of LPA itself. […] These receptors are ubiquitous by tissue and in those eukaryotes investigated. […] Thus, the mechanism of drug action for GI-ARS protection is activation of the transmembrane G protein-coupled lysophosphatidic acid receptor (LPAR) and, more specifically, the LPAR2 GPCR subtype. The primary pharmacodynamics is that LPAR2 activation leads to a cascade of intracellular events that switch cells from an apoptotic to a repair/regenerative pathway.
as §1
Oleyl alcohol is, of course, a common component of many non-toxic ingested or dermally applied substances.

Assay [4] deals with LPA2 receptors from the rat (Rattus norvegicus, UniProt A0ABK0LT65). Description: Calcium-mobilization assay (FURA-2), rat LPA2. Format: cell-based. As to the method: as §1
Another assay deals with T5, LPA5 (Homo sapiens, UniProt Q9H1C0).
T5 construct: expressed in transfected cells; host or cells: B103 rat neuroblastoma
Description: Calcium-mobilization assay (FURA-2), LPA5 in B103 neuroblastoma cells. Format: cell-based. As to the method:
as §1

Setting [5] is: RH7777, read-out: Emax (% of LPA).

Here are results for two compounds from patent publication US20170226139A1, “CRYSTALLINE SALTS OF (Z)-O-OCTADEC-9-EN-1-YL O,O-DIHYDROGEN PHOSPHOROTHIOATE” (priority 2013, published 2017).

Read-outs that look alike come from different tables or passages of the source.

LPA2 receptors from the rhesus, sequence (I2CXV3 1-351): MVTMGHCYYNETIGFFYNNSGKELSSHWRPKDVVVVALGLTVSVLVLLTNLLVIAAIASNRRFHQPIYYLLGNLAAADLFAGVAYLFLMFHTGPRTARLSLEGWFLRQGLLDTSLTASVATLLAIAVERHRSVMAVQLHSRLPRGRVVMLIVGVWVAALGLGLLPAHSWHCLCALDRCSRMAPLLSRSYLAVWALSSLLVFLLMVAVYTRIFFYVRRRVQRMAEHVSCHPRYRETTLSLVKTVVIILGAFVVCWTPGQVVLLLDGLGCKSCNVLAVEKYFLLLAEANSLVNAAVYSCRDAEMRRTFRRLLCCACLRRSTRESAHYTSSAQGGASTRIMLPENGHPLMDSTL
T4 sequence (Q92633 whole entry): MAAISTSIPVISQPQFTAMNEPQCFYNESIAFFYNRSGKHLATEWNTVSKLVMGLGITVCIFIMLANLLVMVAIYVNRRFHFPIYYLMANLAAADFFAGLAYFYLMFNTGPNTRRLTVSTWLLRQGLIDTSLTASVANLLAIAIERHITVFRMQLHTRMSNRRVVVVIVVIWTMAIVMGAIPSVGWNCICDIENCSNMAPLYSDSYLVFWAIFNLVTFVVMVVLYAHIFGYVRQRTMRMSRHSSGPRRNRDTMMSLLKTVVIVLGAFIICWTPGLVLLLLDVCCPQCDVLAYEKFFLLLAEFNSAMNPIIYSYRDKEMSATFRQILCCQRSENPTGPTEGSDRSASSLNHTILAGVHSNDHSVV
Human LPA2, sequence (Q9HBW0 whole entry): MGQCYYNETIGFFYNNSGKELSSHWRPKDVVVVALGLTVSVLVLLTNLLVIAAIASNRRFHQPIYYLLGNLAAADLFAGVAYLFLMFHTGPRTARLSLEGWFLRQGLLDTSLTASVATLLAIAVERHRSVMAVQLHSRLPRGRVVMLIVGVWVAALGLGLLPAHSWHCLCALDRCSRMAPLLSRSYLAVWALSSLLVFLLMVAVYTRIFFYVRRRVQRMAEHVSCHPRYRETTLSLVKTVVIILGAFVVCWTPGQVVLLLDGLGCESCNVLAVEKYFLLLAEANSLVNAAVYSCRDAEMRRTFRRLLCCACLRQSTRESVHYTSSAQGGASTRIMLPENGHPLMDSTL
LPA2 receptors from the rat, sequence (A0ABK0LT65 1-348): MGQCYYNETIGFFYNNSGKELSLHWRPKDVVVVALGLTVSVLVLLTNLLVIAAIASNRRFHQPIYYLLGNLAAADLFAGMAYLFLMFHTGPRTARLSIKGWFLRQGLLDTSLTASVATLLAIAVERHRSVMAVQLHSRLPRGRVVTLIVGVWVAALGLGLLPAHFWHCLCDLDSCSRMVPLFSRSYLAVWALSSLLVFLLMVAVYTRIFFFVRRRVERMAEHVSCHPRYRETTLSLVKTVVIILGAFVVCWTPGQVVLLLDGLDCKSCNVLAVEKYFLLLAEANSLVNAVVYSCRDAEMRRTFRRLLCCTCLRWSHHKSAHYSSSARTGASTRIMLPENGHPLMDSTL
T1 sequence (Q9JL06 whole entry): as the sequence (A0ABK0LT65 1-348) above, with V153A, V189A, F211Y, T310M, H316S, H321R, S324A, R327Q, H341R counted along it
T3 sequence (Q99677 whole entry): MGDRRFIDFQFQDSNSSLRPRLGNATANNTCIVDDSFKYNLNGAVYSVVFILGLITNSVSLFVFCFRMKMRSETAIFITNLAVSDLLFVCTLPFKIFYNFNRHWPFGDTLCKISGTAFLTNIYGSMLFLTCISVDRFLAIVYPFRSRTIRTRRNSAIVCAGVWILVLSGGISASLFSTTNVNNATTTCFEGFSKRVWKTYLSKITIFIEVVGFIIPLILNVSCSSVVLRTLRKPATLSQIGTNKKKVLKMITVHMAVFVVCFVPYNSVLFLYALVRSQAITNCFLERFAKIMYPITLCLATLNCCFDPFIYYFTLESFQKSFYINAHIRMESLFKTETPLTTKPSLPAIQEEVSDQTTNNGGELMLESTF
T5 sequence (Q9H1C0 whole entry): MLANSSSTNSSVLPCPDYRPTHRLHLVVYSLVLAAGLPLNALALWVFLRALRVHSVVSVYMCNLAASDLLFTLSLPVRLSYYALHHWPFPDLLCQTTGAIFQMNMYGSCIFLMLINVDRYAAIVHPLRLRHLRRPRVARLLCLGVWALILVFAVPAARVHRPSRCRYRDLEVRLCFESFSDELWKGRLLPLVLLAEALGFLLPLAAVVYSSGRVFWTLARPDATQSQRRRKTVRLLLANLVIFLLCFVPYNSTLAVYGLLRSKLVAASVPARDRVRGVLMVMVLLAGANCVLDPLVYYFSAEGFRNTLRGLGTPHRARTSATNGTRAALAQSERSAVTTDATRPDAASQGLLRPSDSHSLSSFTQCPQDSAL

Usually EC50 stands for the concentration needed to bring the measured effect to its halfway point. As a reminder, the Emax is the greatest response seen or fitted, relative to the assay's reference. In the case of `CCCCCCCC/C=C/CCCCCCCCOP(O)(O)=S` [Rx103], the EC50 in [1] is 355 nM; on Human LPA2, 241 nM; on Human LPA3 (EC50 [nM], LPA3 DKO MEF, human), 61 nM; on Human LPA3 (EC50 [nM], LPA3 RH7777, human) it was 74 nM; in the assay on Control CHO (Cricetulus griseus, CHO) it was over 5000 nM; at Human LPA4, over 5000 nM. For the same compound, the EC50 at Human LPA1 (EC50 [nM], LPA1 DKO MEF, human) stood at 367 nM; at Human LPA1 (EC50 [nM], LPA1 RH7777, human), 1710 nM; in assay [2], 133 nM; in [4], 133 nM; at LPA5, 83 nM. Also, the Emax in [1] (read-out: Emax (% of LPA)) was found to be 100%; on Human LPA2 (read-out: Emax (% of LPA)) it was 70%; on Human LPA3 (setting [5]) it was 77%; at Human LPA3 (read-out: Emax (% of LPA)), 100%; in the assay with Control CHO (Cricetulus griseus, CHO, read-out: Emax (% of LPA)) it was 12%; on Human LPA4 (CHO, read-out: Emax (% of LPA)), 88%. The Emax was found to be 75% at Human LPA1 (setting [5]); 90% at Human LPA1 (read-out: Emax (% of LPA)); 90% in [2] (read-out: Emax (% of LPA)); 87.6% in [4] (read-out: Emax (% of LPA)); 103% at LPA5 (B103, read-out: Emax (% of LPA)). Moreover, in [3], the “LPAR activation” value was “has activity but has a uniformly reduced EC50 and Emax”.

Turning to `CCCCCCCC/C=C\CCCCCCCCOP(=O)(O)O` [Rx200, oleyl phosphate], the “EC50 [nM]” value in assay [1] (LPA2 DKO MEF, mouse, mean) is “No”; at Human LPA2 (LPA2 DKO MEF, human, mean) it was “No”; in assay [2] (LPA2 DKO MEF, rhesus, mean) it was “No”; in assay [4] (LPA2 DKO MEF, rat, mean), “No”. The “Emax (% of LPA)” value in [1] (LPA2 DKO MEF, mouse, mean) is “No”; on Human LPA2 (LPA2 DKO MEF, human, mean), “No”; on Human LPA3 (LPA3 DKO MEF, human) it was 34 % of LPA; at Human LPA3 (LPA3 RH7777, human), 61 % of LPA; in the assay on Control CHO (Control CHO (untransfected; endogenously expresses LPA1)), 12%; at Human LPA4 (LPA4 CHO, human, mean), 70 % of LPA. The “Emax (% of LPA)” value at Human LPA1 (LPA1 DKO MEF, human) is 53 % of LPA; on Human LPA1 (LPA1 RH7777, human) it was 83 % of LPA; in assay [2] (LPA2 DKO MEF, rhesus, mean), “No”; in assay [4] (LPA2 DKO MEF, rat, mean), “No”; on LPA5 (LPA5 B103, human, mean) it was 100 % of LPA. The EC50 at Human LPA3 (LPA3 DKO MEF, human, read-out: EC50) was over 5000 nM; at Human LPA3 (LPA3 RH7777, human, read-out: EC50), 747 nM; with Control CHO (Control CHO (untransfected; endogenously expresses LPA1), read-out: EC50), 965 nM; on Human LPA4 (LPA4 CHO, human, mean, read-out: EC50) it was 737 nM; on Human LPA1 (LPA1 DKO MEF, human, read-out: EC50), 1360 nM; on Human LPA1 (LPA1 RH7777, human, read-out: EC50) it was 328 nM. Also, the EC50 on LPA5 (LPA5 B103, human, mean, read-out: EC50) came to 167 nM. Further, the “LPAR activation” value in assay [3] is “virtually inactive”.
